Experimental data from patent publication US20140271855A1, “SOVAPREVIR TABLETS” (Achillion Pharmaceuticals Inc., priority 2013, published 2014).

Assays:
[1] = Human pharmacokinetic parameters following a single Sovaprevir tablet dose; format: in vivo; details: single tablet dose 200 mg, mean
Procedure: A single 200 mg dose of Sovaprevir was administered to human subjects.
The pharmacokinetic parameters shown in TABLE 4 were measured in humans following administration of a single Sovaprevir tablet dose.

[2] = as above; format: in vivo; details: mean
[3] = single tablet dose 100 mg (Fasted)
[4] = single tablet dose 100 mg (Fed)

Compound: C=C[C@@H]1C[C@]1(NC(=O)[C@@H]1C[C@@H](Oc2cc(-c3ccccc3)nc3cc(OC)ccc23)CN1C(=O)[C@@H](CC(=O)N1CCCCC1)C(C)(C)C)C(=O)NS(=O)(=O)C1CC1 [Sovaprevir]
- AUC(0-∞) [1]: 500.0 ng·h/mL
- Cmax [1]: 109 ng/mL
- Tmax [1]: 2.61 h
- AUC(0-72) [2, 3]: 288 ng·h/mL
- AUC(0-∞) [2, 3]: 302 ng·h/mL
- Cmax [2, 3]: 67.2 ng/mL
- Tmax [2, 3]: 1.58 h
- AUC(0-72) [2, 4]: 220 ng·h/mL
- AUC(0-∞) [2, 4]: 228 ng·h/mL
- Cmax [2, 4]: 61.9 ng/mL
- Tmax [2, 4]: 4.20 h
- AUC(0-72) ([2]; single tablet dose 200 mg): 489.9 ng·h/mL
- AUC(0-72) ([2]; single tablet dose 250 mg): 735.6 ng·h/mL
- AUC(0-∞) ([2]; single tablet dose 250 mg): 748.8 ng·h/mL
- Cmax ([2]; single tablet dose 250 mg): 172 ng/mL
- Tmax ([2]; single tablet dose 250 mg): 3.40 h
- AUC(0-72) ([2]; single tablet dose 300 mg): 1301 ng·h/mL
- AUC(0-∞) ([2]; single tablet dose 300 mg): 1314 ng·h/mL
- Cmax ([2]; single tablet dose 300 mg): 333 ng/mL
- Tmax ([2]; single tablet dose 300 mg): 3.39 h
